Measurements as given in patent US10029022B2, “Nuclear medicine diagnostic imaging agent” (Kyoto University, priority 2015, dated 2018).
One block for each compound: values may come before it.

Legend:
[1] = molecular target: T1, EGFR (T790M) (Homo sapiens, UniProt P00533, T790M); assay: EGFR Tyrosine Kinase Inhibiting Activity Measurement 1 (ADP-Glo), T790M; assay type: biochemical; details: 1 h incubation with ATP/Poly(Glu, Tyr); >10: <50% enzyme inhibition at 10 μM
T1 construct: purchased Promega V4506
T1 sequence (P00533 25-1210 T790M): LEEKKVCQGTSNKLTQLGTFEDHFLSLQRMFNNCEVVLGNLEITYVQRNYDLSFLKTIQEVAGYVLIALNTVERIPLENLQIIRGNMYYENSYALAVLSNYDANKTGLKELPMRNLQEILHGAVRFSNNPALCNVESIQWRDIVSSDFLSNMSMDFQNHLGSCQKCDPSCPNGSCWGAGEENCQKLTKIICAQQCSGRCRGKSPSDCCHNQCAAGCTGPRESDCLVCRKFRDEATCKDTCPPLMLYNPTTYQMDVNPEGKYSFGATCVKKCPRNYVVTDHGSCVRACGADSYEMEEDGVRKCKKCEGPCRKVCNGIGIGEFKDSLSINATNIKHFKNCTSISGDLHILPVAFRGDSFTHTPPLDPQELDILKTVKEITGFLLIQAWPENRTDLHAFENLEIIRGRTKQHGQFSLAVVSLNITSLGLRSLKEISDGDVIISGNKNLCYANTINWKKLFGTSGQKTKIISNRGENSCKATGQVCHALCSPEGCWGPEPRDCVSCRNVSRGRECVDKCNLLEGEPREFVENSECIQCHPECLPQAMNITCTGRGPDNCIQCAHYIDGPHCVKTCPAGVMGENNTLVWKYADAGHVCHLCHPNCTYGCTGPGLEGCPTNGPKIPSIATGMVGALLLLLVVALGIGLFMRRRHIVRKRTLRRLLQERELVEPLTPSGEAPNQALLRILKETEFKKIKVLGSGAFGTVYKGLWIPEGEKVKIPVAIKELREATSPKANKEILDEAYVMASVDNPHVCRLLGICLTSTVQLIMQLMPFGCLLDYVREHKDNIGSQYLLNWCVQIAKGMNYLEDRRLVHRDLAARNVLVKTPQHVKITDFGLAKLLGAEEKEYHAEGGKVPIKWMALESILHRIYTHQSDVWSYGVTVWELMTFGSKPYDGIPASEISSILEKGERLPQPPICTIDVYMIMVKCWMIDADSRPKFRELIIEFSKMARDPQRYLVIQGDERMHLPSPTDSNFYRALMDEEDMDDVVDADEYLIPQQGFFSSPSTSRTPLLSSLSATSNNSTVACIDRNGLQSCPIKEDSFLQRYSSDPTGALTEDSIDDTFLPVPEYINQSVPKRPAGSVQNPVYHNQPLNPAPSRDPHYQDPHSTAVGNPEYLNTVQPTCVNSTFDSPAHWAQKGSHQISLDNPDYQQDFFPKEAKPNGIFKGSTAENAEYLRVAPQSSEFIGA
Procedure: (§1) The measurement was carried out according to the Promega protocol applications guide. That is, a buffer solution (40 mM Tris-HCl, pH 7.5, 20 mM MgCl2, 50 μM DTT and 0.1 mg/mL BSA) was used as a dilute solution. The concentration of each compound started at 100 μM (the final concentration, including 1% DMSO) with 5-fold dilutions with the buffer solution. Thus, ten concentrations of each compound were prepared. The initial concentration of PD158780 alone was set at 10 μM (the final concentration, including 1% DMSO) but it was prepared in the same manner as the compound group. Then, 2 μL of each concentration of each compound thus obtained was added to each well of a 384-well plate. Furthermore, 4 μL (20 ng) of an EGFR Kinase Buffer that came with each EGFR Kinase Enzyme System was added to each well, which then was incubated at room temperature for ten minutes. Subsequently, 4 μL of mixed solution of ATP (10 μM) and Poly(Glu, Tyr) (2 μg) substrate was added to each well, which then was incubated at room temperature for one hour. Then, 10 μL of ADP-Glo™ Reagent (ADP-Glo™ Kinase Assay, Promega) was added to each well, which then was reacted at room temperature for 40 minutes. Furthermore, 20 μL of Kinase Detection Reagent (ADP-Glo™ Kinase Assay, Promega) was added to each well, which then was reacted at room temperature for one hour. […] From the data thus obtained, dose-response curves and IC50 were calculated using GraphPad Prism 5 (GraphPad Software, Inc.).

[2] = molecular target: T2, EGFR (EGFR Kinase Enzyme System, WT) (Homo sapiens, UniProt P00533); assay: EGFR Tyrosine Kinase Inhibiting Activity Measurement 1 (ADP-Glo), WT; assay type: biochemical; details: for IC50: 1 h incubation with ATP/Poly(Glu, Tyr), >10: <50% enzyme inhibition at 10 μM
T2 construct: purchased Promega V3831
T2 sequence (P00533 25-1210): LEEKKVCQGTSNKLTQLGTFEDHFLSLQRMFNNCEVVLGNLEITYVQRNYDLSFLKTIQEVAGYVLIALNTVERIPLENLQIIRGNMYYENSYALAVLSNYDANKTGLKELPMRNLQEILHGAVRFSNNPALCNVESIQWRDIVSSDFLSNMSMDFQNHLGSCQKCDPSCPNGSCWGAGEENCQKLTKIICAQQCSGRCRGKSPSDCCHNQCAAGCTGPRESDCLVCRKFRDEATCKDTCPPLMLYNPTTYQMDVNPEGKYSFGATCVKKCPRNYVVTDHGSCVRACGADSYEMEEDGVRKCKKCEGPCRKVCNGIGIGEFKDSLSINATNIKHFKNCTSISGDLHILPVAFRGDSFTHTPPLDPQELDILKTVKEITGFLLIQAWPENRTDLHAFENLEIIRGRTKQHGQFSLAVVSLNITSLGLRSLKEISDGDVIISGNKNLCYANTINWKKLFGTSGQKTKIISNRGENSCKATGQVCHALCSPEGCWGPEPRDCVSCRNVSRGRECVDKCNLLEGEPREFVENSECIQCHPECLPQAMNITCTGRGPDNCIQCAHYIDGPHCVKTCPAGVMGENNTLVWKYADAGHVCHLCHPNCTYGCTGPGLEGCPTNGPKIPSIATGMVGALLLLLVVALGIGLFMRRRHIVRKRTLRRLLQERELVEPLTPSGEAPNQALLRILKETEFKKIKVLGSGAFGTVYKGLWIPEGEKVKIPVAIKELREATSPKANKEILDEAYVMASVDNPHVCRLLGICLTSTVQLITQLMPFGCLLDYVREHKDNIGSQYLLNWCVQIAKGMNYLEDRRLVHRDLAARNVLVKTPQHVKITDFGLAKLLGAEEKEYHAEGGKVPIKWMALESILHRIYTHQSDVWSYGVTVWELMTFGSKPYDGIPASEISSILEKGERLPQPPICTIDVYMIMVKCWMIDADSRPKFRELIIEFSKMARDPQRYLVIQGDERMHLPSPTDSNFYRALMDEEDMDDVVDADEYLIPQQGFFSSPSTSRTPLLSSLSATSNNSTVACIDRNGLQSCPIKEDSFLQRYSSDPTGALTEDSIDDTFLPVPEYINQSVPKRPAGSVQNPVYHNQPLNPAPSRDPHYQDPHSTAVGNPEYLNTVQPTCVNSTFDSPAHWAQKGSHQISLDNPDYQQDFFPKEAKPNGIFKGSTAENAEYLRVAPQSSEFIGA
Procedure: as §1

[3] = molecular target: T3, EGFR (L858R) (Homo sapiens, UniProt P00533, L858R); assay: EGFR Tyrosine Kinase Inhibiting Activity Measurement 1 (ADP-Glo), L858R; assay type: biochemical; details: 1 h incubation with ATP/Poly(Glu, Tyr); >10: <50% enzyme inhibition at 10 μM
T3 construct: purchased Promega V5322
T3 sequence (P00533 25-1210 L858R): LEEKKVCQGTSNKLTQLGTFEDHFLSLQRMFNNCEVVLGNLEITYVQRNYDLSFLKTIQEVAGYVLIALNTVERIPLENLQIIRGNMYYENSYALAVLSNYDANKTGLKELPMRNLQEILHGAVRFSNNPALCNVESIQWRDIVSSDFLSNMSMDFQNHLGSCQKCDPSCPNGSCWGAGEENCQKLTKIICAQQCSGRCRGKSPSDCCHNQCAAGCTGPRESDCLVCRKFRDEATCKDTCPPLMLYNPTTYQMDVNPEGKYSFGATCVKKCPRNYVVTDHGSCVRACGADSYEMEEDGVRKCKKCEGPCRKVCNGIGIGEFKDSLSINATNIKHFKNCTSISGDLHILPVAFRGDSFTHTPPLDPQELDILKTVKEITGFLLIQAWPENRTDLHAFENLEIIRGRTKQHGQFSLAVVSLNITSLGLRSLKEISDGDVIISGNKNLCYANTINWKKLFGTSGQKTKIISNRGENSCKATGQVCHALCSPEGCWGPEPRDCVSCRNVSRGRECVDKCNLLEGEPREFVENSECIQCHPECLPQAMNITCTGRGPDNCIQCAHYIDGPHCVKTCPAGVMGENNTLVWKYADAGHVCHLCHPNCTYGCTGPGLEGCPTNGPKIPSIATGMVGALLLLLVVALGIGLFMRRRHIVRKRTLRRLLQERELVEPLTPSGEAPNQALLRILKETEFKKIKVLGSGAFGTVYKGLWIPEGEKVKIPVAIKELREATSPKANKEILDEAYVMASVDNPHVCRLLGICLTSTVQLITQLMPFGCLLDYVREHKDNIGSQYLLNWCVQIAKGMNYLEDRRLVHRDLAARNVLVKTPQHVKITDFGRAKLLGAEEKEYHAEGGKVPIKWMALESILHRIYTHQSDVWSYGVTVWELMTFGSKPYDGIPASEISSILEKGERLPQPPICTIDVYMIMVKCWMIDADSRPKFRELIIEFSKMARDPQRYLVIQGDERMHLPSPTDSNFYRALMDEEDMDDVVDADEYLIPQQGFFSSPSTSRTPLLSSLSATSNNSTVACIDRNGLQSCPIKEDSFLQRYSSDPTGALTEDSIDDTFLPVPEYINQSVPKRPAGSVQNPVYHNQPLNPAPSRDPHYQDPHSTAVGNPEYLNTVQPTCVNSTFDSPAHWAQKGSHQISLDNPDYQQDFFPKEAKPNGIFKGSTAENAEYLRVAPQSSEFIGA
Procedure: as §1

[4] = molecular target: T4, EGFR (T790M, L858R) (Homo sapiens, UniProt P00533, L858R/T790M); assay: EGFR Tyrosine Kinase Inhibiting Activity Measurement 1 (ADP-Glo), DM; assay type: biochemical; details: 1 h incubation with ATP/Poly(Glu, Tyr); >10: <50% enzyme inhibition at 10 μM
T4 construct: purchased Promega V5324
T4 sequence (P00533 25-1210 T790M/L858R): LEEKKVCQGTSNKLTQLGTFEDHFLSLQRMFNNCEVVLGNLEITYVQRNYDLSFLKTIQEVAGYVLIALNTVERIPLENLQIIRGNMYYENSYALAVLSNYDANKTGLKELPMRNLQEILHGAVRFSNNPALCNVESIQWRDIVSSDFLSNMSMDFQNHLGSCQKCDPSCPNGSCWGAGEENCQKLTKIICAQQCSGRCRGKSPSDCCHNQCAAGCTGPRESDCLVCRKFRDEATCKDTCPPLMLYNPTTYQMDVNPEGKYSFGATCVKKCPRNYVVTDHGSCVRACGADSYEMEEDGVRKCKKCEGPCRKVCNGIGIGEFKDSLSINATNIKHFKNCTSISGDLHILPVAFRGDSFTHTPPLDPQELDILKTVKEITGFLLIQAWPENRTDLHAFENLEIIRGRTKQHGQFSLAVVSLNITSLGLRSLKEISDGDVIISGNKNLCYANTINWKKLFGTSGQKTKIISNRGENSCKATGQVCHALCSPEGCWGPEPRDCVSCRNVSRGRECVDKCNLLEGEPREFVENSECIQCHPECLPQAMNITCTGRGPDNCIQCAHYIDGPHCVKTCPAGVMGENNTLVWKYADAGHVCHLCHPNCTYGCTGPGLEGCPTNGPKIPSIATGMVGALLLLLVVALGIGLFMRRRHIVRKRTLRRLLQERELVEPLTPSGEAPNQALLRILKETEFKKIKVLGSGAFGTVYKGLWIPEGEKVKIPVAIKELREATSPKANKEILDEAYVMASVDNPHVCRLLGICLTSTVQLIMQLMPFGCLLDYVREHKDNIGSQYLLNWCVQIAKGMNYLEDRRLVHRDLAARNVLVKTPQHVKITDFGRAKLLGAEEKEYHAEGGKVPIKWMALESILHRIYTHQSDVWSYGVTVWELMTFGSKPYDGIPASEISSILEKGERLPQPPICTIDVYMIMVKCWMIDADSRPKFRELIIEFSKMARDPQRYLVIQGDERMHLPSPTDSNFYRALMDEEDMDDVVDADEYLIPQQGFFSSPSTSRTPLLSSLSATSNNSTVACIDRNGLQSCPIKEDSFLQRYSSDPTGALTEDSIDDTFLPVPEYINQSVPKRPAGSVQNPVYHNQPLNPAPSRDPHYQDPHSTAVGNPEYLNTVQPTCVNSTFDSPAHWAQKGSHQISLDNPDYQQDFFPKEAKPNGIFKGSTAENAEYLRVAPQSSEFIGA
Procedure: as §1

[5] = molecular target: T5, L858R/T790M-mutated EGFR (Homo sapiens, UniProt P00533, L858R/T790M); assay: EGFR Tyrosine Kinase Inhibiting Activity Measurement 2, L858R/T790M; assay type: biochemical
T5 construct: purchased Promega V5324
Procedure: as §1, with “minutes.” for “minutes. Furthermore, 20 μL of Kinase Detection Reagent (ADP-Glo™ Kinase Assay, Promega) was added to each well, which then was reacted at room temperature for one hour.”

[6] = molecular target: T6, L858R-mutated EGFR (Homo sapiens, UniProt P00533, L858R); assay: EGFR Tyrosine Kinase Inhibiting Activity Measurement 2, L858R; assay type: biochemical
T6 construct: purchased Promega V5322
Procedure: as §1, with “minutes.” for “minutes. Furthermore, 20 μL of Kinase Detection Reagent (ADP-Glo™ Kinase Assay, Promega) was added to each well, which then was reacted at room temperature for one hour.”

[7] = tested on: H1975 tumor (L858R/T790M mutation); assay: Biodistribution Experiment (Blocking Experiment), H1975; assay type: in vivo, mouse; details: with or without AZD9291 (17 μg), 180 min after administration; FIG. 4
Procedure: At 180 minutes after the administration, they were slaughtered and H3255 tumor tissues were removed. The mass and the accumulated radioactivity were measured, and the amount of accumulation (% dose/g) was calculated from the radioactivity per unit weight. This was carried out in the same manner as above except that AZD9291 was not administered.
Furthermore, this experiment was carried out in the same manner as above except that H1975 tumor-bearing mice were used.

[8] = tested on: H3255 tumor-bearing mouse; assay: Biodistribution Experiment in tumor-bearing mice; assay type: in vivo
Procedure: 1×10^7 cells/mouse of H3255 cells suspended in BD Matrigel™ Basement Membrane Matrix was implanted to the right shoulder of a 5-week-old male BALB/c nu/nu mouse (Shimizu Laboratory Supplies), and thereby a tumor-bearing mouse was prepared. They were used for experiments, with the tumor being 1 cm or smaller in diameter.
[^18F]H4 was dissolved in saline containing 0.1% Tween 80 so as to be 6 μCi/100 μL and 100 μL thereof was administered to each tumor-bearing mouse through a tail vein. The mice were decapitated/slaughtered at predetermined time points (30 minutes, 1 hour, 2 hours, and 3 hours after administration). The blood was collected and tissues were removed and then the mass and the accumulated radioactivity were measured. The amount of accumulation (% dose/g) was calculated from the radioactivity per unit weight and the accumulation in the tissues was evaluated. FIG. 3 is a graph showing an example of variations with time of the accumulation of [^18F]H4 in each organ.

[9] = tested on: H3255 tumor (L858R mutation); assay: Biodistribution Experiment (Blocking Experiment), H3255; assay type: in vivo, mouse; details: AZD9291 (17 μg) administered simultaneously, 180 min after administration; FIG. 4
Procedure: At 180 minutes after the administration, they were slaughtered and H3255 tumor tissues were removed. The mass and the accumulated radioactivity were measured, and the amount of accumulation (% dose/g) was calculated from the radioactivity per unit weight. […]

[10] = tested on: H1975 cells (L858R/T790M mutation); assay: Cellular Uptake Inhibition Experiment 2 (AZD9291), H1975; assay type: cell-based, human; details: regardless of AZD9291 (0, 1, 5 μM), 2 h incubation; FIG. 2
Procedure: (§2) Two types of EGFR mutation-positive human non-small cell lung cancer cells H3255 (L858R mutation) and H1975 (L858R/T790M mutation) were cultured in a DMEM/Ham's F-12 medium (Nacalai Tesque) containing glutamine, antibiotics (penicillin-streptomycin), and 20% fetal bovine serum.
(§3) H3255 and H1975 cells (4×10^5 cells/well) were cultured in a 12-well plate for 24 hours. After the medium was removed, each well was washed with PBS(−) once. […] [^18F]H4 (148 kBq/well) was added to each well, which then was incubated in the 5% CO2 incubator at 37° C. for two hours. Each well was washed with 0.1% Tween 80/1% DMSO/PBS(−) three times, and the cells were dissolved with 0.2 N NaOH. The radioactivity of each solution was measured with the gamma counter and the protein concentration was determined using the BCA Protein Assay Kit (Pierce, Rockford, Ill.) and then the measurement results were analyzed.

[11] = tested on: H3255 cells (L858R mutation); assay: Cellular Uptake Inhibition Experiment 2 (AZD9291), H3255; assay type: cell-based, human; details: AZD9291 0, 1, 5 μM pre-incubated 30 min, then 2 h; FIG. 2
Procedure: as §2, §3

[12] = tested on: H3255 cells (L858R mutation); assay: Cellular Uptake Inhibition Experiment 1 (gefitinib), H3255; assay type: cell-based, human; details: gefitinib 0, 0.5, 1, 2.5 μM, 2 h incubation; FIG. 1
Procedure: as §2
(§4) The binding specificity of H4 to each mutated EGFR-TK was evaluated by a cellular uptake inhibition experiment using H3255 cells, which are L858R mutant cells, and H1975 cells, which are L858R/T790M mutant cells. H3255 and H1975 cells (4×10^5 cells/well) were cultured in a 12-well plate for 48 hours. After the medium was removed, each well was washed with PBS(−) once. Each fetal bovine serum-free DMEM/Ham's F-12 medium with [^18F]H4 (0.15 MBq/mL) and gefitinib (0, 0.5, 1, and 2.5 μM) added thereto was added to each well, which then was incubated in a CO2 incubator for two hours. Each well was washed with 0.1% Tween 80/1% DMSO/PBS(−) three times, and the cells were dissolved with 0.2 N NaOH. The radioactivity of each solution was measured with the gamma counter, and the protein concentration was determined using a BCA Protein Assay Kit (Pierce, Rockford, Ill.) and then the measurement results were analyzed.

[13] = tested on: H1975 tumor-bearing mouse; assay: PET/CT Imaging 2; assay type: in vivo; details: 180 to 200 min after administration; FIG. 6
Procedure: PET/CT Imaging 2 was carried out in the same manner as in PET/CT Imaging 1 except that a H1975 tumor-bearing mouse was used and the following imaging conditions were employed.
Animal: Balb/c nu/nu mouse, 9 w, male, 20.9 g
Injection dose: 486 μCi/150 μL
(§5) Image acquisition: 180 to 200 min after administration
(§6) Condition of CT: 60 kV, 320 μA

[14] = tested on: H3255 tumor-bearing mouse; assay: PET/CT Imaging 1; assay type: in vivo; details: 180 to 200 min after tail vein administration; FIG. 5
Procedure: [^18F]H4 (9.8 MBq/150 μL) was administered to a H3255 tumor-bearing mouse through a tail vein. He was anesthetized by inhalation of isoflurane (2.0%) from 175 minutes after the administration and then was imaged for 20 minutes from 180 minutes after the administration using a PET/CT device (FX-3300). Thereafter, CT imaging (60 kV, 320 μA) was carried out. The image reconstruction was carried out using 3D-OSEM.
Animal: Balb/c nu/nu mouse, 10 w, male, 22.2 g
Injection dose: 264 μCi/150 μL
as §5, §6

[15] = tested on: H1975 cells (L858R/T790M mutation); assay: Cellular Uptake Inhibition Experiment 1 (gefitinib), H1975; assay type: cell-based, human; details: regardless of gefitinib (0, 0.5, 1, 2.5 μM), 2 h incubation; FIG. 1
Procedure: as §2, §4

[16] = 30 min after tail vein administration, average of 5 mice
[17] = 60 min after tail vein administration, average of 5 mice
[18] = 120 min after tail vein administration, average of 5 mice
[19] = 180 min after tail vein administration, average of 5 mice
[20] = from 30 min to 180 min after administration

Compound: FCCOc1cccc(Nc2ncnc3cnc(NCCN4CCOCC4)cc23)c1 [Compound H2, N^4-(3-(2-Fluoroethoxy)phenyl)-N^6-(2-morpholinoethyl)pyrido[3,4-d]pyrimidine-4,6-diamine]
- IC50 [1]: > 10000 nM
- IC50 [2]: 7210 nM
- binding affinity to the wild-type EGFR (in words) ([2]; comment on Table 1): low binding affinity
- IC50 [3]: 653 nM
- IC50 [4]: > 10000 nM

Compound: Fc1ccc(Nc2ncnc3cnc(NCCN4CCOCC4)cc23)cn1 [Compound H3, N^4-(6-Fluoropyridin-3-yl)-N^6-(2-morpholinoethyl)pyrido[3,4-d]pyrimidin-4,6-diamine]
- IC50 [1]: > 10000 nM
- IC50 [2]: 3750 nM
- IC50 [3]: 686 nM
- IC50 [4]: > 10000 nM

Compound: O=C(/C=C/CN1CCN(CCF)CC1)Nc1cc2c(Nc3cccc(Br)c3)ncnc2cn1 [Compound H4, (E)-N-(4-((3-Bromophenyl)amino)pyrido[3,4-d]pyrimidin-6-yl)-4-(4-(2-fluoroethyl)piperazin-1-yl)but-2-enamide]
- IC50 ([5]; 2 h incubation after ATP and Poly(Glu, Tyr) substrate were added, read-out: EGFR Kinase Inhibition: IC50, L858R/T790M): 326 ± 64 nM
- binding affinity to the L858R/T790M-mutated EGFR (in words) ([5]; comment on Table 2): lower than AZD9291 and was higher than Erlotinib
- IC50 [1]: 409 nM
- IC50 [2]: 49 nM
- IC50 [3]: 58 nM
- IC50 [4]: 406 nM
- IC50 ([6]; 2 h incubation after ATP and Poly(Glu, Tyr) substrate were added, read-out: EGFR Kinase Inhibition: IC50, L858R): 15.6 ± 0.8 nM
- binding affinity to the L858R-mutated EGFR (in words) ([6]; comment on Table 2): relatively high binding affinity

The next lines start with results.

- IC50 [1]: 4110 nM
- IC50 [2]: 17 nM
- IC50 [3]: 15 nM
- IC50 [4]: 4020 nM
Compound: FCCNc1cc2c(Nc3cccc(Br)c3)ncnc2cn1 [Compound H1, 4-[(3-Bromophenyl)amino]-6-(2-fluoroethylamino)pyrido[3,4-d]pyrimidine]

- IC50 [2]: 6 nM
Compound: CNc1cc2c(Nc3cccc(Br)c3)ncnc2cn1 [PD158780, reference compound]

- Tumor/Blood Ratio [8, 16]: 1.99
- Tumor/Muscle Ratio [8, 16]: 3.47
- Tumor/Blood Ratio [8, 17]: 3.24
- Tumor/Muscle Ratio [8, 17]: 8.89
- Tumor/Blood Ratio [8, 18]: 3.28
- Tumor/Muscle Ratio [8, 18]: 5.75
- Tumor/Blood Ratio [8, 19]: 3.03
- Tumor/Muscle Ratio [8, 19]: 9.29
- Tumor/Blood Ratio [8, 20]: around 3
- Tumor/Muscle Ratio [8, 20]: exceeded 5
- metabolism and excretion (transition from the liver to the intestine) ([8]; tumor-bearing mice, 30 to 180 min after administration, FIG. 3): quickly metabolized and excreted
Compound: O=C(/C=C/CN1CCN(CC[18F])CC1)Nc1cc2c(Nc3cccc(Br)c3)ncnc2cn1 [[^18F]H4, (E)-N-(4-((3-Bromophenyl)amino)pyrido[3,4-d]pyrimidin-6-yl)-4-(4-(2-[^18F]fluoroethyl)piperazin-1-yl)but-2-enamide]
- change of accumulation of [^18F]H4 in the H1975 tumor [7]: hardly changed
- reduction in accumulation of [^18F]H4 in the H3255 tumor [9]: 54%
- uptake of [^18F]H4 into the H1975 cells [10]: approximately 50 % ID/mg protein
- uptake of [^18F]H4 into the H3255 cells [11]: inhibited by AZD9291
- uptake of [^18F]H4 into the H3255 cells [12]: inhibited by gefitinib
- accumulation in PET/CT image, H1975 implant [13]: no specific accumulation
- accumulation in PET/CT image, H3255 implant [14]: accumulated specifically in the portion where H3255 was implanted
- uptake of [^18F]H4 into the H1975 cells [15]: approximately 50 % ID/mg protein
